Experimental data: US20220249441A1, “Homodimeric Tobramycin Adjuvant Repurposes Novobiocin as an Effective Antibacterial Agent Against Gram-Negative Bacteria” (priority 2019, published 2022)
≈ marks a conversion by molar mass, not a printed value. Read-outs that look alike come from different tables or passages of the source.

Tests used:
[1] = system: P. aeruginosa; assay: Checkerboard assay (antibiotic + adjuvant combination MIC); type: cell-based, Pseudomonas aeruginosa; details: for MIC of Aztreonam + compound / MIC of Ceftazidime + compound / MIC of Imipenem + compound / MIC of Piperacillin + compound: P. aeruginosa PAO1
Procedure: Antimicrobial Susceptibility Assay. The in vitro antimicrobial activity of all compounds/antibiotics against a panel of bacteria was evaluated by microbroth dilution method in accordance with the Clinical and Laboratory Standards Institute (CLSI) guidelines (using ATCC strains as quality control strains) (54). Overnight grown bacterial cultures were diluted in saline to achieve a 0.5 McFarland turbidity, followed by 1:50 dilution in Mueller-Hinton broth (MHB) for inoculation to a final concentration of approximately 5×10^5 CFU/mL. […] The lowest concentration that prevented the visible growth of bacteria was defined as the MIC for each antimicrobial agent. The broth with or without bacterial cells was used as positive or negative control, respectively.
Checkerboard Assay. Combination studies with different antibiotics were performed in 96-well plates as previously described (19). Briefly, the antibiotic of interest was serially diluted in MHB along the abscissa while the adjuvant (tobramycin homodimer) was serially diluted in MHB along the ordinate. This creates a 10×7 matrices wherein each well consists of a combination of different antibiotic and adjuvant concentrations. Overnight grown bacterial cultures were diluted in saline to achieve a 0.5 McFarland turbidity, followed by 1:50 dilution in Mueller-Hinton broth (MHB) for inoculation to a final concentration of approximately 5×10^5 CFU/mL. […] MIC was recorded as wells with the lowest concentration of drugs with no bacterial growth. The fractional inhibitory concentration (FIC) for each antibiotic was calculated by dividing the MIC of the antibiotic in the presence of adjuvant by the MIC of the antibiotic alone. Similarly, the FIC of adjuvant was calculated by dividing the MIC of the adjuvant in the presence of antibiotic by the MIC of the adjuvant alone. FIC index is the sum of both FICs. FIC indices of ≤0.5 were deemed synergistic; >0.5-4, no interaction; and >4, antagonistic.

[2] = system: P. aeruginosa PAO1 and efflux deficient mutants, MDR/XDR isolates; assay: microbe, parasite or virus in culture; type: cell-based, Pseudomonas aeruginosa
Procedure: Antimicrobial Susceptibility Assay. The in vitro antimicrobial activity of all compounds/antibiotics against a panel of bacteria was evaluated by microbroth dilution method in accordance with the Clinical and Laboratory Standards Institute (CLSI) guidelines (using ATCC strains as quality control strains) (54). […] The broth with or without bacterial cells was used as positive or negative control, respectively.

[3] = PA 262-101856, compound at 8 μM
[4] = PA 264-104354, compound at 8 μM
[5] = PA O200 (efflux-deficient), compound at 8 μM
[6] = PA O750 (efflux-deficient), compound at 8 μM
[7] = PAO200 (first column so headed)
[8] = PAO200 (second column so headed)

## NC[C@H]1O[C@H](O[C@H]2[C@H](OCCCCc3cn(CCCCO[C@@H]4[C@@H](O[C@H]5O[C@H](CO)[C@@H](O)[C@H](N)[C@H]5O)[C@H](N)C[C@H](N)[C@H]4O[C@H]4O[C@H](CN)[C@@H](O)C[C@H]4N)nn3)[C@@H](O[C@H]3O[C@H](CO)[C@@H](O)[C@H](N)[C@H]3O)[C@H](N)C[C@@H]2N)[C@H](N)C[C@@H]1O.O=C(O)C(F)(F)F.O=C(O)C(F)(F)F.O=C(O)C(F)(F)F.O=C(O)C(F)(F)F.O=C(O)C(F)(F)F.O=C(O)C(F)(F)F.O=C(O)C(F)(F)F.O=C(O)C(F)(F)F.O=C(O)C(F)(F)F.O=C(O)C(F)(F)F [Compound 23, Tobramycin homodimer]
[1]; compound at 8 μM
  MIC of Aztreonam + compound: 0.25 µg/mL
  MIC of Ceftazidime + compound: 0.25 µg/mL
  MIC of Imipenem + compound: 1 µg/mL
  MIC of Piperacillin + compound: 0.5 µg/mL
  resistant isolates in which CLSI breakpoint was attained for aztreonam: eleven out of thirteen
  resistant isolates in which CLSI breakpoint was attained for ceftazidime: four out of eleven
  resistant isolates in which CLSI breakpoint was attained for imipenem: five out of seventeen
[1]; PA 259-96918, compound at 8 μM
  MIC of ATM in the presence of compound: 8 µg/mL
  MIC of CAZ in the presence of compound: 128 µg/mL
  MIC of IPM in the presence of compound: 32 µg/mL
[1]; PA 260-97103, compound at 8 μM
  MIC of ATM in the presence of compound: 16 µg/mL
  MIC of CAZ in the presence of compound: 8 µg/mL
  MIC of IPM in the presence of compound: 16 µg/mL
[1]; [3]
  MIC of ATM in the presence of compound: 8 µg/mL
  MIC of CAZ in the presence of compound: 2 µg/mL
  MIC of IPM in the presence of compound: 2 µg/mL
[1]; [4]
  MIC of ATM in the presence of compound: 8 µg/mL
  MIC of CAZ in the presence of compound: 32 µg/mL
  MIC of IPM in the presence of compound: 4 µg/mL
[1]; PA 86052, compound at 8 μM
  MIC of ATM in the presence of compound: 8 µg/mL
  MIC of CAZ in the presence of compound: 64 µg/mL
  MIC of IPM in the presence of compound: 16 µg/mL
[1]; PA 88949, compound at 8 μM
  MIC of ATM in the presence of compound: 32 µg/mL
  MIC of CAZ in the presence of compound: 16 µg/mL
  MIC of IPM in the presence of compound: 4 µg/mL
[1]; PA 91433, compound at 8 μM
  MIC of ATM in the presence of compound: 4 µg/mL
  MIC of CAZ in the presence of compound: 1 µg/mL
  MIC of IPM in the presence of compound: 4 µg/mL
[1]; PA 100036, compound at 8 μM
  MIC of ATM in the presence of compound: 2 µg/mL
  MIC of CAZ in the presence of compound: 2 µg/mL
  MIC of IPM in the presence of compound: 4 µg/mL
[1]; PA 101243, compound at 8 μM
  MIC of ATM in the presence of compound: 16 µg/mL
  MIC of CAZ in the presence of compound: 64 µg/mL
  MIC of IPM in the presence of compound: 8 µg/mL
[1]; PA 101885, compound at 8 μM
  MIC of ATM in the presence of compound: 4 µg/mL
  MIC of CAZ in the presence of compound: 2 µg/mL
  MIC of IPM in the presence of compound: 4 µg/mL
[1]; PA 107092, compound at 8 μM
  MIC of ATM in the presence of compound: 16 µg/mL
  MIC of CAZ in the presence of compound: 32 µg/mL
  MIC of IPM in the presence of compound: 16 µg/mL
[1]; PA 108590, compound at 8 μM
  MIC of ATM in the presence of compound: 8 µg/mL
  MIC of CAZ in the presence of compound: 8 µg/mL
  MIC of IPM in the presence of compound: 4 µg/mL
[1]; PA 109084, compound at 8 μM
  MIC of ATM in the presence of compound: 8 µg/mL
  MIC of CAZ in the presence of compound: 32 µg/mL
  MIC of IPM in the presence of compound: 8 µg/mL
[1]; PA 114228, compound at 8 μM
  MIC of ATM in the presence of compound: 4 µg/mL
  MIC of CAZ in the presence of compound: 1 µg/mL
  MIC of IPM in the presence of compound: 0.5 µg/mL
[1]; [5]
  MIC of ATM in the presence of compound: 0.03 µg/mL
  MIC of CAZ in the presence of compound: 0.13 µg/mL
  MIC of IPM in the presence of compound: 1 µg/mL
[1]; [6]
  MIC of ATM in the presence of compound: 0.06 µg/mL
  MIC of CAZ in the presence of compound: 0.06 µg/mL
  MIC of IPM in the presence of compound: 1 µg/mL
[1]; PAO1, compound at 8 μM
  MIC of ATM in the presence of compound: 0.25 µg/mL
  MIC of CAZ in the presence of compound: 0.25 µg/mL
  MIC of IPM in the presence of compound: 1 µg/mL
[2]; PAO1 (wild-type)
  MIC: >128 µg/mL
[2]; [7]
  MIC: >128 µg/mL
[2]; [8]
  MIC: >128 µg/mL

## NC[C@H]1O[C@H](O[C@H]2[C@H](OCCCCc3cn(CCCCO[C@@H]4[C@@H](O)[C@H](N)C[C@H](N)[C@H]4O[C@H]4O[C@H](CN)[C@@H](O)C[C@H]4N)nn3)[C@@H](O)[C@H](N)C[C@@H]2N)[C@H](N)C[C@@H]1O [Compound 26, Nebramine Homodimer]
[1]
  MIC of CAZ in the presence of compound: 128 µg/mL
[1]; compound at 8 μM
  MIC of Aztreonam + compound: 1 µg/mL
  MIC of Ceftazidime + compound: 0.5 µg/mL
  MIC of Imipenem + compound: 2 µg/mL
  MIC of Piperacillin + compound: 8 µg/mL
[1]; PA 259-96918, compound at 8 μM
  MIC of ATM in the presence of compound: 8 µg/mL
  MIC of IPM in the presence of compound: 64 µg/mL
[1]; PA 260-97103, compound at 8 μM
  MIC of ATM in the presence of compound: 16 µg/mL
  MIC of CAZ in the presence of compound: 16 µg/mL
  MIC of IPM in the presence of compound: 16 µg/mL
[1]; [3]
  MIC of ATM in the presence of compound: 16 µg/mL
  MIC of CAZ in the presence of compound: 16 µg/mL
  MIC of IPM in the presence of compound: 4 µg/mL
[1]; [4]
  MIC of ATM in the presence of compound: 8 µg/mL
  MIC of CAZ in the presence of compound: 32 µg/mL
  MIC of IPM in the presence of compound: 8 µg/mL
[1]; PA 86052, compound at 8 μM
  MIC of ATM in the presence of compound: 32 µg/mL
  MIC of CAZ in the presence of compound: 64 µg/mL
  MIC of IPM in the presence of compound: 16 µg/mL
[1]; PA 88949, compound at 8 μM
  MIC of ATM in the presence of compound: 16 µg/mL
  MIC of CAZ in the presence of compound: 64 µg/mL
  MIC of IPM in the presence of compound: 32 µg/mL
[1]; PA 91433, compound at 8 μM
  MIC of ATM in the presence of compound: 2 µg/mL
  MIC of CAZ in the presence of compound: 0.5 µg/mL
  MIC of IPM in the presence of compound: 8 µg/mL
[1]; PA 100036, compound at 8 μM
  MIC of ATM in the presence of compound: 4 µg/mL
  MIC of CAZ in the presence of compound: 4 µg/mL
  MIC of IPM in the presence of compound: 4 µg/mL
[1]; PA 101243, compound at 8 μM
  MIC of ATM in the presence of compound: 8 µg/mL
  MIC of CAZ in the presence of compound: 32 µg/mL
  MIC of IPM in the presence of compound: 8 µg/mL
[1]; PA 101885, compound at 8 μM
  MIC of ATM in the presence of compound: 4 µg/mL
  MIC of CAZ in the presence of compound: 1 µg/mL
  MIC of IPM in the presence of compound: 4 µg/mL
[1]; PA 107092, compound at 8 μM
  MIC of ATM in the presence of compound: 32 µg/mL
  MIC of IPM in the presence of compound: 32 µg/mL
[1]; PA 108590, compound at 8 μM
  MIC of ATM in the presence of compound: 16 µg/mL
  MIC of CAZ in the presence of compound: 32 µg/mL
  MIC of IPM in the presence of compound: 8 µg/mL
[1]; PA 109084, compound at 8 μM
  MIC of ATM in the presence of compound: 16 µg/mL
  MIC of CAZ in the presence of compound: 32 µg/mL
  MIC of IPM in the presence of compound: 16 µg/mL
[1]; PA 114228, compound at 8 μM
  MIC of ATM in the presence of compound: 16 µg/mL
  MIC of CAZ in the presence of compound: 1 µg/mL
  MIC of IPM in the presence of compound: 4 µg/mL
[1]; [5]
  MIC of ATM in the presence of compound: 0.06 µg/mL
  MIC of CAZ in the presence of compound: 0.25 µg/mL
  MIC of IPM in the presence of compound: 1 µg/mL
[1]; [6]
  MIC of ATM in the presence of compound: 0.25 µg/mL
  MIC of CAZ in the presence of compound: 0.13 µg/mL
  MIC of IPM in the presence of compound: 2 µg/mL
[1]; PAO1, compound at 8 μM
  MIC of ATM in the presence of compound: 1 µg/mL
  MIC of CAZ in the presence of compound: 0.5 µg/mL
  MIC of IPM in the presence of compound: 2 µg/mL
[2]; PAO1 (wild-type)
  MIC: >128 µg/mL
[2]; [7]
  MIC: >128 µg/mL
[2]; [8]
  MIC: 128 µg/mL (≈ 162 µM)
